We go through nine substances from paper PMC2289263 (The Journal of Cell Biology, 1992).

For data set [1], the system named is B16-F10, A549, rabbit smooth muscle and bovine aortic endothelial cells. Briefly: Cell adhesion assay, summary over the four cell types of Table II. The format is cell-based. As to conditions: for Cell attachment compared to TSP, range over four cell types: text summary of Table II.
The subject of data set [2] is B16-F10 mouse melanoma cells in C57BL/6 mouse. The data set can be described thus: Tumor cell metastasis assay. The format is in vivo. Particulars: compared with buffer control.
The nature of the next data set: Heparin binding activity. Particulars: data not shown.
The test system of the next data set is human platelets. The data set can be described thus: ADP-induced platelet aggregation in platelet-rich plasma. The format is cell-based. As to conditions: ADP for 5 min, 500 ug/ml peptide; buffer control more than 1,000 per clump.
A short description of data set [3]: Oxidative stability of peptide in solution. The format is physicochemical.

On to CSVTCR, for which the “Cell attachment compared to TSP, range over four cell types” value in data set [1] is given as 90-159%.

As for ANKHYF [reference compound], the “Cell adhesive activity (in words)” value in data set [1] was “little or no significant cell adhesive activity”. For the same substance, the “Effect on lung tumor colony formation (in words)” value in data set [2] is “no significant effect”. Turning to Cyclic CSVTCG (disulfide), the “Cell adhesive activity (in words)” value in data set [1] was “approximately to the same extent as CSVTCG”. For “TSP: 450,000-dalton glycoprotein secreted by platelets, purified from activated platelets”, in data set [1] (TSP-coated microtiter wells), the “Number of adherent cells representing 100% adhesion” value is 500 adherent cells per min'.

Take CRVTCG: the Heparin binding activity entry in the data set “Heparin binding activity” is recorded as “possessed heparin binding activity”. With TCVCGS [reference compound], the “Cell adhesive activity (in words)” value in data set [1] is listed as “little or no significant cell adhesive activity”. The “Effect on lung tumor colony formation (in words)” value in data set [2] is recorded as “no significant effect”. For VCTGSC [reference compound], in data set [1], the “Cell adhesive activity (in words)” value is on record as “little or no significant cell adhesive activity”.

Consider CSTSCR, for which the “Cell attachment compared to TSP, range over four cell types” value in data set [1] is listed as 39-104%. In the case of CSVTCG, the “Cell attachment compared to TSP, range over four cell types” value in data set [1] was 29-49%. For the same substance, the Platelets per clump in the data set on human platelets is on record as 10-50 platelets per clump. In addition, in data set [3] (multimers with apparent molecular weights of 2,000 on SDS-gels), the “Oxidation in solution (in words)” value was “slowly oxidized in solution”. For the same substance, in data set [3] (peptide in solution, oxidation of cysteine thiols), the “Time for which freshly prepared solutions were stable” value is on record as “at least 2 h”. Also, the Heparin binding activity entry in “Heparin binding activity” is “did not”.
